Values after ≈ are worked out from the molar mass of the structure shown. Where a SMILES comes first, the peptide text is derived from it. Where no end group is shown, it is not given here. [ ]: non-standard residue; d: D form.
Columns and labels:
[1] = human plasma (EDTA K2), 3.2 mM peptide, 37 °C, 200 rpm, samples at 1, 3, 6 h; read-out halo size in spot-on-lawn against K. pneumoniae LMG 20218; triplicate
Description: For plasma stability, the peptides were lyophilized and resuspended in plasma or PBS (as a control) at a final concentration of 3.2 mM. After that, the peptides were incubated with shaking (200 rpm) during 6 h at 37 °C. At time 1, 3, and 6 h, 10 µL samples were tested against K. pneumoniae LMG 20218 by a spot-on-lawn test. Reduction in the size of the halo was related to the degradation of the peptide. The test was performed in triplicate.

K. pneumoniae LMG 20218 [2] = experiment: microbe, parasite or virus in culture
Description: (§1) MIC tests were performed in triplicate by liquid growth inhibition microdilution assays in sterile polypropylene microtiter plates according to the Clinical and Laboratory Standards Institute (CLSI) guideline for bacteria that grow aerobically. Briefly, the indicator strains were first streaked on the appropriate agar plate, and then single colonies were picked and incubated overnight in liquid broth. The final inoculum of bacteria was 5*10^5 CFU/mL prepared in CAMHB (cationic adjusted Mueller–Hinton broth, Sigma-Aldrich) or CAMHB plus 5% of lysed horse blood (TCS Biosciences, Buckingham, UK) in the case of S. pneumoniae. The antimicrobials were 2-fold serially diluted and 50 µL diluted bacterial suspension was added to each well to make the final volume 100 µL. The microtiter plates and the count plates were incubated at 37 °C for 16–20 h without shaking. Growth inhibition was assessed by measuring the OD600 using a microplate reader (Tecan Infinity F200). The lowest concentration of the antimicrobials that inhibits visible growth of the indicator strain is identified as the MIC value.
(§2) The condition for the tests and the analysis of the plates were performed as described above for the MIC tests.

P. aeruginosa LMG 6395 [3] = experiment: microbe, parasite or virus in culture
Description: as §1, §2

E. aerogenes LMG 02094 [4] = experiment: microbe, parasite or virus in culture
Description: as §1, §2

E. coli LMG 15862 [5] = experiment: microbe, parasite or virus in culture
Description: as §1, §2

A. baumannii LMG 01041 [6] = experiment: microbe, parasite or virus in culture
Description: as §1, §2

K. pneumoniae LMG 20218 [7] = details: LMG 20218
Description: (§3) For the synergy test, standard checkerboard broth microdilution assays were conducted to test the synergistic effect of combined antimicrobials using the same condition as before[51],[56]. […] The initial concentration of both peptides was their individual MIC. 50 µL fresh bacterial suspension prepared as above was added to the wells already containing the antimicrobial compound mixture to achieve 100 µL final volume per well.
(§4) The fractional inhibitory concentration (FIC) indices[57] were calculated using the formula FICI = FICa + FICb = MICac/MICa + MICbc/MICb, to determine whether the combination is additive, synergistic or antagonistic[51],[57]. The MICa and MICb is the MIC of compound A or B alone, respectively. MICac is the MIC of compound A in combination with compound B and MICbc is the MIC of compound B when it was combined with compound A. The FIC corresponds to the MIC of a compound in combination with the other compound, divided by the MIC of the compound alone. FICa is FIC of compound A while FICb is FIC of compound B. The FICI was interpreted according to EUCAST[58] as follows: synergistic, FICI ≤ 0.5; additive,0.5 < FICI ≤ 1; indifferent, 1 < FICI < 2; antagonistic, FICI ≥ 2.
as §2

P. aeruginosa LMG 6395 [8] = test system: P. aeruginosa LMG 6395
Description: as §3, §4, §2

E. aerogenes LMG 02094 [9] = test system: E. aerogenes LMG 02094
Description: as §3, §4, §2

E. coli LMG 15862 [10] = test system: E. coli LMG 15862
Description: as §3, §4, §2

A. baumannii LMG 01041 [11] = test system: A. baumannii LMG 01041
Description: as §3, §4, §2

E. faecalis V583 = type: cell-based
Description: as §1

E. faecium LMG16003 = type: cell-based
Description: as §1

S. aureus LMG8224 = type: cell-based
Description: as §1

HEK-293 cells = experiment: Cytotoxicity, cell viability (CellTiter-Glo); details: all the concentrations tested (up to 88 µM)
Description: 96-well plates were seeded with HEK-293 cells at a concentration of 3*10^5 cells/well in 100 µL of DMEM growth medium supplemented with 1% NEAA and 10% FBS. Border wells were filled with 100 µL of sterile PBS. […] ATP levels were measured by adding 50 µL of CellTiter-Glo reagent (Promega, Madison, US) to each well, and luminescence was measured with a SpectraMax i3 microplate reader after 5 minutes of incubation. The potential effect of the tested compounds on cell viability was determined by comparing the signal obtained in the presence of different concentrations of the compounds with those obtained in the control wells. All these tests were performed in triplicate.

[12] = test system: human red blood cells (hRBCs); experiment: Hemolytic activity; details: 1 h
Description: (§5) Hemolytic activity was determined with fresh human red blood cells (hRBCs)[28]. The hRBCs were centrifuged (1000×g, 5 min) and the supernatant was discarded. The pellets were washed three times with PBS and diluted in PBS to make the cell stock solution with a cell density of 2*10^8 cells/mL. […] 1% Triton X-100 and PBS were used as controls. The cells were incubated at 37 °C for 1 h and centrifuged at 2000 rpm for 5 min. The supernatant was transferred to a new 96-well plate and hemolysis was monitored by measuring the absorbance at 450 nm (OD450). Hemolysis levels were calculated as percentage. % hemolysis = 100 × (As−A0)/(At−A0), where As, A0, and At are the absorbance of the hRBCs suspension in PBS with antimicrobial agents (As), without antimicrobial agents (A0), and with 1% Triton X-100 (At). […] For the TI calculation (TI = MHC/GM), other factors as the GM (geometric mean of MIC value of all the Gram-negative strains tested) were calculated.

[13] = test system: all the Gram-negative strains tested; experiment: organism not typed
Description: as §1, §2
as §5, with “The cells were incubated at 37 °C for 1 h and centrifuged at 2000 rpm for 5 min.” left out

S. pneumoniae R6 = experiment: MIC, broth microdilution; type: cell-based; details: S. pneumoniae R6 (Gram-positive); compound alone; CAMHB plus 5% lysed horse blood
Description: as §1

[14] = test system: human red blood cells (hRBCs); details: cited from earlier work
[15] = compound alone, CLSI broth microdilution, CAMHB, 5*10^5 CFU/mL, 37 °C, 16–20 h, OD600, triplicate

Compound	MIC (K. pneumoniae LMG 20218 [2]; LMG 20218)	MIC (P. aeruginosa LMG 6395 [3]; LMG 6395)	MIC (E. aerogenes LMG 02094 [4]; LMG 02094)	MIC (E. coli LMG 15862 [5]; LMG 15862)	MIC (A. baumannii LMG 01041 [6]; LMG 01041)	other results
CC[C@@H](C)[C@@H](NC(=O)[C@@H](CCCCN)NC(=O)[C@@H](CCCCN)NC(=O)[C@@H](Cc1c[nH]c2ccccc12)NC(=O)[C@@H](CC(C)C)NC(=O)[C@H](N)CCCNC(=N)N)C(=O)N[C@H](CCCNC(=N)N)C(=O)N[C@H](CCC(N)=O)C(=O)N[C@@H](C(=O)N[C@@H](C(=O)N[C@H](CCCNC(=N)N)C(N)=O)[C@H](C)CC)C(C)C [D-11R] (H-[dR][dL][dW][dK][dK][dI][dR][dQ][dV][dI][dR]-NH2)	32 µM (≈ 47.8 µg/mL)	16 µM (≈ 23.9 µg/mL)	32 µM (≈ 47.8 µg/mL)	8 µM (≈ 12 µg/mL)	64 µM (≈ 95.7 µg/mL)	stability in plasma [1]: completely resistant to degradation in plasma; FICI, peptide + nisin (K. pneumoniae LMG 20218 [7]): 0.125; FICI, peptide + nisin (P. aeruginosa LMG 6395 [8]): 0.188; FICI, peptide + nisin (E. aerogenes LMG 02094 [9]): 0.188; FICI, peptide + nisin (E. coli LMG 15862 [10]): 0.375; FICI, peptide + nisin (A. baumannii LMG 01041 [11]): 0.188
CC[C@@H](C)[C@@H](NC(=O)[C@H](N)CCCNC(=N)N)C(=O)N[C@@H](C(=O)N[C@H](CCC(N)=O)C(=O)N[C@H](CCCNC(=N)N)C(=O)N[C@@H](C(=O)N[C@H](CCCCN)C(=O)N[C@H](CCCCN)C(=O)N[C@H](Cc1c[nH]c2ccccc12)C(=O)N[C@H](CC(C)C)C(=O)N[C@H](CCCNC(=N)N)C(N)=O)[C@H](C)CC)C(C)C [D-11] (H-[dR][dI][dV][dQ][dR][dI][dK][dK][dW][dL][dR]-NH2)	32 µM (≈ 47.8 µg/mL)	16 µM (≈ 23.9 µg/mL)	32 µM (≈ 47.8 µg/mL)	4 µM (≈ 5.98 µg/mL)	8 µM (≈ 12 µg/mL)	stability in plasma [1]: completely resistant to degradation in plasma; MIC (E. faecalis V583): 64 µM (≈ 95.7 µg/mL); MIC (E. faecium LMG16003): 10.6 µM (≈ 15.8 µg/mL); MIC (S. aureus LMG8224): > 85 µM; effect on viability of HEK-293 cells (HEK-293 cells): did not affect the viability; TI, therapeutic index (MHC/GM) [12]: 39.03; MHC, minimal hemolytic concentration that caused 10% hemolysis of hRBCs ([12]; red cells of human): 1200 µM; MHA, mean hemolytic activity ([12]; red cells of human, 50 µM): 0%; MHA, mean hemolytic activity ([12]; red cells of human, 100 µM): 0%; MHA, mean hemolytic activity ([12]; red cells of human, 200 µM): 0%; MHA, mean hemolytic activity ([12]; red cells of human, 400 µM): 0%; MHA, mean hemolytic activity ([12]; red cells of human, 600 µM): 0%; FICI, peptide + nisin (K. pneumoniae LMG 20218 [7]): 0.078; FICI, peptide + nisin (P. aeruginosa LMG 6395 [8]): 0.156; FICI, peptide + nisin (E. aerogenes LMG 02094 [9]): 0.188; FICI, peptide + nisin (E. coli LMG 15862 [10]): 0.375; FICI, peptide + nisin (A. baumannii LMG 01041 [11]): 0.094; GM, MIC geometric mean against all the Gram-negative strains tested [13]: 30.75 µM; MIC (S. pneumoniae R6): > 85 µM
AIVQRIKKWLR-NH2 [L-13]	24 µM	16 µM	128 µM	12 µM	128 µM	
GIGKHVGKALKGLKGLLKGLGEC [L-7]	12 µM	13 µM	8 µM	6 µM	2 µM	
GNNRPVYIPQPRPPHPRL [L-1]	5 µM	>64 µM	8 µM	0.5 µM	>64 µM	
KIVQRIKKWLR-NH2 [L-12]	32 µM	16 µM	256 µM	16 µM	128 µM	
KRIVQRIKKWLR-NH2 [L-8]	64 µM	16 µM	32 µM	4 µM	16 µM	hemolytic activity [14]: very low hemolytic activity
RIKRRIKKWLR-NH2 [L-15]	>256 µM	32 µM	>256 µM	24 µM	>256 µM	
RIRKRIKKWLR-NH2 [L-14]	>256 µM	16 µM	>256 µM	16 µM	>256 µM	
RIVQRIKKWL-NH2 [L-10]	64 µM	16 µM	>256 µM	32 µM	128 µM	
RIVQRIKKWLR-NH2 [L-11]	32 µM	16 µM	128 µM	12 µM	>64 µM	stability in plasma [1]: almost completely degraded within the first 3 h; FICI, peptide + nisin (A. baumannii LMG 01041 [11]): 0.063
RIVQRIKKWR-NH2 [L-9]	>256 µM	>256 µM	>256 µM	256 µM	>256 µM	
RIWVIWRR-NH2 [L-5]	6 µM	3 µM	5 µM	3 µM	2 µM	
RLLFRKIRRLKR [L-4]	>256 µM	>128 µM	>256 µM	64 µM	>128 µM	
RRLFRRILRWL-NH2 [L-6]						hemolytic activity in previous studies [14]: rather high hemolytic activity; MIC (K. pneumoniae LMG 20218 [2]; [15]): 4 µM; MIC (P. aeruginosa LMG 6395 [3]; [15]): 3 µM; MIC (E. aerogenes LMG 02094 [4]; [15]): 8 µM; MIC (E. coli LMG 15862 [5]; [15]): 2 µM; MIC (A. baumannii LMG 01041 [6]; [15]): 2 µM
VDKGSYLPRPTPPRPIYNRN-NH2 [L-3]	16 µM	32 µM	>32 µM	3 µM	8 µM	
VDKPPYLPRPRPPRRIYNR [L-2]	8 µM	>64 µM	>64 µM	4 µM	16 µM	

Source: article PMC7782785, “Outer-membrane-acting peptides and lipid II-targeting antibiotics cooperatively kill Gram-negative pathogens” (Communications Biology, 2021)
